These results are taken from US5670506A, “Halogen, isothiocyanate or azide substituted xanthines” (Cell Therapeutics, Inc., priority 1993, dated 1997).

Common to all, as to format: cell-based
Series [1] deals with CMV promoter activity in transformed (adenovirus) cells. In words: CMV promoter assay (gene transcription and translation, cytotoxic activity). Conditions: read-out: IC50 (μM), CMV promoter assay. The text has this: This example illustrates data regarding proliferative activity of various inventive compounds for inducting CMV promoter activity. The CMV promoter assay measures gene transcription and translation activity wherein any active compounds will nave cytotoxic activity to inhibit cellular protein synthesis machinery in transformed (adenovirus) cells.

The next series relates to human stromal cells. In words: inhibition of proliferation of human stromal cells stimulated with PDGF. Conditions: FIG. 7; 50 ng/ml PDGF-BB, in words. As to the method: This assay is a model for restenosis and treatment of atherosclerosis and coronary artery disease. Stromal cells were starved in serum-free media for one day and then stimulated with 50 ng/ml PDGF-BB. The drags were added at the indicated concentrations one hour prior to PDGF stimulation. Tritiated thymidine was added for one day at the time of PDGF stimulation and the cells were harvested and counted by liquid scintillation counting 24 hrs later. Background counts (i.e., starved cells) were approximately 1% of control levels.
Another assay for measuring activity of the inventive compounds involves determining PDGF (platelet derived growth factor) proliferative response using human-derived stromal cells. Human stromal cells are plated (e.g., about 2000 cells per well) in defined media (e.g., 69% McCoy's, 12.5% fetal calf serum, 12.5% horse serum, 1% antibiotics, 1% glutamine, 1% vitamin supplement, 0.8% essential amino acids, 1% sodium pyruvate, 1% sodium bicarbonate, 0.4% non-essential amino acids and 0.36% hydrocortisone). Two to three days later, the stromal cells are starved in serum-free media. Twenty four hours later, the cells are treated with a stimulating agent, such as PDGF-AA, PDGF-BB or basic FGF (fibroblast growth factor) with or without IL-1α or TNF, and tritiated thymidine. Cell proliferation is determined by liquid scintillation counting.
This assay is a model for restenosis and treatment of atherosclerosis and coronary artery disease. Stromal cells were starved in serum-free media for one day and then stimulated with 50 ng/ml PDGF-BB. The drugs were added at the indicated concentrations one hour prior to PDGF stimulation. Tritiated thymidine was added for one day at the time of PDGF stimulation and the cells were harvested and counted by liquid scintillation counting 24 hrs later. Background counts (i.e., starved cells) were approximately 1% of control levels.

A further series concerns mast cells. Kind of series: mast cell degranulation, serotonin release assay. The following applies: 100 μM. The text has this: A serotonin release assay is utilized to study the utility of the inventive compounds for treatment of asthma and allergy. This assay measures mast cell degranulation, which is an early phase reaction to allergen challenge. Mast cells grown in tissue culture are first loaded with ^3 H serotonin, which is incorporated into the granules in the cells. The mast cells are sensitized with antigen specific monoclonal IgE, and then triggered to degranulate with the specific antigen (dinitrophenol bound to BSA (DNP)). When the cells degranulate, ^3 H Serotonin is released into the medium, and can be measured directly. The ability of the inventive compounds to inhibit the degranulation response is determined by the decrease in ^3 H Serotonin released in the presence of drug and is represented as % INHIBITION. The IC50 of any given compound is determined by the ability of that compound to inhibit degranulation by 50%.
Specifically, the serotonin release assay seeds 2×10^5 cells in 0.5 ml medium in duplicate for spontaneous release, IgE+DNP, IgE+DNP+EtOH (vehicle control), and inventive compounds. One μCi [^3H ]-Serotonin/ml (i.e., 0.5 μCi/well) (NEN Research Products, cat. #NET-398 Hydroxytryptamine Binoxalate, 5-[1,2-^3 H(N)]-(Serotonin Binoxalate, [1,2-^3 H(N)]-)) and 1 μl/ml IgE is added. The cells are incubated for 18 hours at 37° C. in 5% CO2, washed twice with 0.5 ml Isotonic Buffer (25 mM disodium PIPES pH 7.1,100 mM NaCl, 5 mM KCl, 5 mM glucose, 0.4 mM MgCl2, 1 mM CaCl2, 0.1% BSA), and sterile filtered. 250 μl Isotonic Buffer is added per well and the plates are equilibrated in an incubator for about 10 min. Drug is added and cells are activated with 40 ng/ml DNP-BSA (1 mg/ml Diluted 1:200 in Isotonic Buffer) for 45 minutes using 2 μl/250 μl. Spontaneous release is determined in incubated cells with 250 μl Isotonic Buffer for 45 minutes and the reaction is stopped by removing supernatant and centrifuging at ~4000 rpm in microfuge for 15 seconds to remove any detached cells. Released radiolableled serotonin is counted. To determine amount of ^3 H-serotonin incorporated into the cells, (a) remove Isotonic Buffer and lyse cells by adding 250 μl 1% Triton-X100 in PBS, (b) add to 5 ml scintillation fluid, (c) wash 2× with Triton/PBS, and (d) add washes to scintillation tube. Percent serotonin release is calculated by dividing the amount of released serotonin by the sum of incorporated plus released serotonin and correcting for spontaneous released serotonin. Compound inhibition is calculated by dividing the percent serotonin release in the presence of a compound by the percent serotonin release in the absence of the compound.
This assay is described above and provides an in vitro model for an allergy and asthma therapeutic compound.

Series [2] concerns transformed cells (Ras 3T3) and normal 3T3 cells. Kind of series: cytotoxicity in transformed and normal 3T3 cells. The following applies: FIG. 9; five compounds. As to the method:
A similar experiment is shown in FIG. 9 for five inventive compounds (see Table 1 […] for chemical names) showing differential cytotoxicity for the same normal and transformed cells.
Each inventive compound is investigated for cytotoxicity to determine appropriate doses for biological activity assays and to prevent cytotoxic reactions in in vitro assays when characterizing activity. Cells (e.g., NIH-3T3, Ras transformed 3T3 cells, malignant melanoma LD2 cells, etc.) are added to microtiter plates and drug is added about two days after plating. Cell viability is determined using a fluorescent viability stain (e.g., 2',7'-bis-(2-carboroxyethyl)-5-(and -6)-carboxyfluorescein acetoxymethyl ester, BCECF excitation 488 nm and emission 525 nm) 24, 48 or 72 hours after addition of the drug.
This example illustrates a comparison of cytotoxicity determinations for CT1595 in transformed cells (Ras 3T3) and in normal 3T3 cells at drug doses of 1, 10 and 100 μM in in vitro cell culture conditions (FIG. 8). […] A similar experiment is shown in FIG. 9 for five inventive compounds (see Table 1 above for chemical names) showing differential cytotoxicity for the same normal and transformed cells.

The subject of series [3] is TNF release from monocytes in whole blood. Kind of series: ex vivo human TNF model, LPS-mediated TNF release in whole blood. Conditions: FIG. 14. As to the method: This model adds LPS to whole blood (normal human volunteers) to trigger a dose-dependent synthesis and extracellular release of TNF according to Desch et al. (Lymphokine Res. 8:141, 1989). The ex vivo model examines whether LPS-mediated release of TNF from monocytes in whole blood can be block by an inventive compound.
An ex vivo human sepsis model is described in Desch et al., Lymphokine Res. 8:141, 1989 and in Ooi et al., J. Exp. Med. 174:649, 1991. Briefly, whole blood from humans is incubated with LPS (endotoxin). TNF released from cells (mostly from monocytes) is measured. The inventive compounds lower TNF levels as compared with untreated controls in this model.
This example illustrates a comparative experiment comparing CT1595, CT1529 and CT2519 in an ex vivo human TNF model described herein. This assay is a predictive model for treatment and prevention of septic shock and sepsis syndrome. This model adds LPS to whole blood (normal human volunteers) to trigger a dose-dependent synthesis and extracellular release of TNF according to Desch et al. (Lymphokine Res. 8:141, 1989). The ex vivo model examines whether LPS-mediated release of TNF from monocytes in whole blood can be block by an inventive compound.

“Also recorded” adds a separate entry of the source.

`Cn1cnc2c1c(=O)n(CCCCC(O)CN=[N+]=[N-])c(=O)n2C` (stereo not shown) [CT1517, 1-(6-azido-5-hydroxyhexyl)-3,7-dimethylxanthine]: in series [1], the IC50 was above 500 µM. Also, the “inhibition of human stromal cell proliferation” value in the series on human stromal cells was “strongly inhibit proliferation”.

Consider `Cn1cnc2c1c(=O)n(CCCCCCCl)c(=O)n2C` [CT1525, 1-(6-chlorohexyl)-3,7-dimethylxanthine], for which the IC50 in series [1] is above 500 µM.

Consider `CC(F)CCCCn1c(=O)c2c(ncn2C)n(C)c1=O` (stereo not shown) [CT1577, 1-(5-fluorohexyl)-3,7-dimethylxanthine], for which 100 µM produced 46% inhibition with mast cells. Also, in series [1], the IC50 was above 500 µM. Besides, in the series with human stromal cells, the “inhibition of human stromal cell proliferation” value is reported as “strongly inhibit proliferation”.

Take `Cn1cnc2c1c(=O)n(CCCCCCOC(=O)CCl)c(=O)n2C` [CT1527, 1-(6-(chloroacetoxy)hexyl)-3,7-dimethylxanthine]: the IC50 in series [1] came out at 200 µM.

Take `CC(CCCCn1c(=O)c2c(ncn2C)n(C)c1=O)OC(=O)CCl` (stereo not shown) [CT1529, 1-(5-(chloroacetoxy)hexyl)-3,7-dimethylxanthine]: the IC50 in series [1] was 100 µM. Besides, in series [2], the “cytotoxic activity, normal and transformed 3T3 cells” value was “significant cytotoxic activity”. Besides, the “block of LPS-mediated TNF release” value in series [3] was “could block TNF release in a dose-dependent fashion; also recorded: most effective agent at lower doses”.

Turning to `CC(=O)OC(CBr)CCCCn1c(=O)c2ccccc2n(C)c1=O` (stereo not shown) [CT1205, 3-(5-acetoxy-6-bromohexyl)-1-methylbenzoyleneurea], in series [1], the IC50 was found to be 200 µM.

Regarding `CC(=O)OC(CBr)CCCCCCn1c(=O)c2c(ncn2C)n(C)c1=O` (stereo not shown) [CT1514, 1-(7-acetoxy-8-bromooctyl)-3,7-dimethylxanthine], in series [1], the IC50 is above 500 µM. Besides, the “inhibition of human stromal cell proliferation” value in the series on human stromal cells was “strongly inhibit proliferation”.

In the case of `Cn1cnc2c1c(=O)n(CCCCCCBr)c(=O)n2C` [CT1589, 1-(6-bromohexyl)-3,7-dimethylxanthine], 100 µM produced 53% inhibition in the series on mast cells. In addition, in series [1], the IC50 was 125 µM. The “inhibition of human stromal cell proliferation” value with human stromal cells is reported as “strongly inhibit proliferation”.

As for `CC(=O)OC(CBr)CCCCCCCCn1c(=O)c2c(ncn2C)n(C)c1=O` (stereo not shown) [CT1583, 1-(9-acetoxy-10-bromodecyl)-3,7-dimethylxanthine], the IC50 in series [1] was above 500 µM. The “inhibition of human stromal cell proliferation” value with human stromal cells is given as “strongly inhibit proliferation”.

On to `CC(=O)OC(CBr)CCCCCCCn1c(=O)c(C)cn(C)c1=O` (stereo not shown) [CT1908, 3-(8-acetoxy-9-bromononyl)-1-methylthymine], for which the IC50 in series [1] stood at 50 µM.

Broadly, the IC50 is the concentration that gives 50% inhibition. The term inhibition denotes the share of the control response that was lost under treatment. Read a low inhibition as a weak effect.
